Reference: a melting point compilation (Tetko et al.; mined from patent text by program, amines drawn as free bases though some values may be those of a salt)

SMILES	melting point [°C]
CC(C)C[C@H](NC(=O)Nc1cccc2ccccc12)C(=O)N[C@H]1CCOC1=O	213 to 214
CON1C=C2N=NC3=C(N2C1)N(C(C)C)CC=C3	159 to 162
CC(C)Cn1cnc2c(N)nc3c(c21)NCCC3	222 to 226
Cc1ccc(S(=O)(=O)N2c3ccccc3C(c3ccccc3)(c3ccccc3)C2NC(=O)Nc2ccc(F)cc2F)cc1 (stereo unspecified)	244 to 246
COC(=O)CCOc1ccccc1CNC(=O)C1Cc2ccccc2N1S(=O)(=O)c1ccc(-c2cccc(C(F)(F)F)c2)cc1 (stereo unspecified)	131
CCc1nc2c(n1Cc1ccc(OC)cc1)C(=O)N(C)CN2c1ccc(Cl)cc1Cl	116 to 118
Cc1nnc2n1-c1sc(C(=O)O)cc1C(c1ccccc1Cl)=NC2	302
O=c1[nH]nc(Cc2ccc([N+](=O)[O-])cc2)o1	170 to 171
COc1ccc(N2C(=O)N(c3cccc(C#N)c3)c3nc(Nc4cccc(CCO)c4)ncc3C2C)cc1 (stereo unspecified)	195 to 200
COC(=NC(=O)c1ccccc1)NC(=O)c1ccccc1	139 to 141
CCCC(=O)Nc1c(C(=O)c2cccc(C)c2)[nH]c2cc(Cl)ccc12	127 to 130
Cc1oc(-c2ccccc2)nc1COc1ccc(C=C2SC(=O)NC2=O)cn1	225 to 226
COC(=O)c1cc(NC(=N)N)c(NC(C)=O)c(Br)c1O	238 to 240
O=C(O)Cc1cc(Cc2cccc(Oc3ccccc3)c2)ccc1Nc1c(Cl)cccc1Cl	116 to 117
C=CCc1cccc2c(=O)cc(C=Cc3ccccc3)oc12	142
Cc1cc(C(F)(F)C(F)(F)C(F)(F)C(F)(F)F)ccc1NC(=O)c1cccc(Br)c1C(=O)NC(C)C	190 to 191
CC(=O)NNc1nc(-c2ccccc2)c2cc(Cl)ccc2n1	228
NC1=NS(=O)(=O)c2cccc(Cl)c21	218
CCCCN(Cc1ccc(-c2ccccc2-c2nnnn2C(c2ccccc2)(c2ccccc2)c2ccccc2)cc1)c1ncncc1C(=O)OCC	142 to 144
CN1C(=S)N(c2ccc(C#N)c(C(F)(F)F)c2)C(=S)C1(C)C	211 to 212
CC1=C(C)C(N)(Cc2ccccc2)C(C)C2=C1OCC2c1ccc(C)cc1 (stereo unspecified)	99 to 100
CCC(CC)CNC(=O)c1ccc2cccc(Cc3ccc(C(=O)OC)cc3OC)c2c1	130

SMILES	melting point [°C]
Nc1ccc(OCc2nc(Cl)ccc2Cl)cc1	74 to 75
Nc1nc2c(s1)CC(CCN1CC=C(c3ccccc3)CC1)CC2 (stereo unspecified)	177 to 182
CCOCCOc1ccc(C(=O)CN(Cc2ccccc2)Cc2ccccc2)cc1C(=O)OC	57
COC(=O)[C@@H]1O[C@@H](c2ccccc2)N(NS(=O)(=O)c2ccc([N+](=O)[O-])cc2)[C@H]1c1ccccc1	118 to 120
O=C(C(=O)c1ccc(F)c(CF)c1)c1ccc(OC(F)F)cc1	68 to 70
O=C(O)Cc1c(C(=O)O)c2cc(Oc3ccc(C(F)(F)F)cc3)ccc2n1-c1ccc(OC(F)(F)F)cc1	257 to 259
CC(C)c1cccc(-c2ccc(F)cc2)c1OCCO	77 to 78
CC1(C)CC(=O)c2c(O)ccc(Br)c2C1	65 to 67
COc1ccc(S(=O)(=O)n2ccc3ccccc32)cc1	124 to 126
CC[C@@H](C)[C@H]1c2ccccc2-c2ccccc2N1S(=O)(=O)c1ccc(O)cc1 (relative stereo)	115 to 118
COC(=O)CCc1ccc(Nc2ccccc2[N+](=O)[O-])cc1	68 to 70
Cc1cc(F)c(F)cc1O	68 to 70
CCc1nc2nccc(-c3cccnc3)n2n1	147 to 149
CCCCCCCCCCC[C@@H]1CC(O)=C(CCCCCC)C(=O)O1	106 to 108
O=C(O)Cc1ccc(NC(=O)C(COc2cccc(Cl)c2)NS(=O)(=O)c2ccc(I)cc2)cc1 (racemic)	225 to 226
COc1cc(OCc2ccccn2)ccc1/C=C/c1cc(/C=C/c2cccc3cc[nH]c23)n[nH]1	99 to 110
C=CC(=O)Oc1cccc(-c2ccc3cc(OC(=O)C=C)ccc3c2)c1	75.4
C=CCN1CCC23c4c5ccc(O)c4OC2C(=NO)CCC3(O)C1C5 (stereo unspecified)	119
Cc1c(Cl)ccc2[nH]c(CO)cc12	108
CNC(=O)c1ccc(-c2ccc3nnn(Cc4ccc5ncccc5c4)c3n2)cc1Cl	227 to 230
NCCc1cccc(Cn2ccc(OCc3ccc(F)cc3F)c(Br)c2=O)c1	70 to 74
Oc1ccc(C2(c3ccc(O)cc3)c3ccccc3-c3ccccc32)cc1	215

SMILES	melting point [°C]
C#CCN=C(NC#N)SC	160 to 164
CCn1c(Cl)c(C=O)c(=O)n(CC)c1=O	88 to 89
COc1ccc(-c2[nH]nc3c2C(=O)c2c(NC(=O)Cc4ccc(NC(=O)CN(C)C)cc4)cccc2-3)cc1	> 300
CC(=Cc1ccc(O)cc1)c1ccc2c(c1)C(C)(C)CC2(C)C	137
COc1ccc2c(c1)CNN=C2Cc1c(Cl)cncc1Cl	181 to 183
Cn1c(C=O)c(-c2ccc(F)cc2)c2ccccc21	75 to 79
CC(=O)NC(C#N)NC(=O)c1cc(Cl)cc(Cl)c1 (stereo unspecified)	227 to 228
Cc1cc(C)cc(Sc2c(C(C)C)nc(C=NO)n2C)c1	240 to 241
CCCOc1cc(CCCC2OC(=O)NC2=O)ccc1OCc1nc(-c2ccccc2)oc1C (stereo unspecified)	119 to 120
COC(=O)c1cc2c(S(=O)(=O)Cl)cc(Cl)c(Cl)c2o1	199 to 200
Clc1cccc(-c2ccc3nncn3n2)c1	175 to 177
CC(C)c1cc(C(C)C)c2nc[nH]c(=O)c2c1	164 to 165
CCCOC(=O)NCCCC1(O)c2ccccc2C=Cc2c(C)cccc21 (stereo unspecified)	157 to 159
NC(=O)CNC(=O)c1ccccc1I	183 to 185
COc1ccc(CNC(=O)c2cn3c(=O)n(Cc4ccccc4)c(=O)c(C)c3s2)cc1	160 to 162
CCCCCCCCCCNC(=S)Nc1ccc(NNC=O)cc1	150 to 152
CC1(C)CC(O)CC(C)(C)N1CC(O)CN1C(C)(C)CC(O)CC1(C)C	186 to 190
COC(=O)c1ccc(Cl)c(C2(O)C(=O)N(Cc3ccc(Cl)cc3OC)c3ccc(Cl)cc32)c1 (stereo unspecified)	205
CC(C)Nc1c([N+](=O)[O-])cnn1-c1ncc(Cl)cc1Cl	123
CCc1cc(=O)n(-c2cc3[nH]c(=O)sc3cc2F)c(=O)n1C	> 250

Next, values leading:

melting point [°C]	SMILES
103 to 105	CCOC=C(C(C)=O)C(=O)NCc1ccc(Cl)cc1
96 to 97	CC(=O)NC(Cc1ccccc1)C(C)=O (stereo unspecified)
230 to 232	N#Cc1ccc(NC(=O)c2cccc(S(=O)(=O)N3CCOCC3)c2)c(-c2nnn[nH]2)c1
150 to 151	CCc1c2c(c(C)c(C)c1N1CCN(c3ccc(OC)cc3)CC1)OC(C)(C)C2
233 to 235	O=C1N=C(N2CCOCC2)SC1=Cc1cccc(-c2ccc(O)c(F)c2)c1
146 to 147	CC(=O)Nc1c(C#N)cnn1-c1ccc(C)cc1Cl
130 to 133	COc1ccc2c3c(ccc2c1)-c1ccccc1C3c1ccc(OCCN2CCCCC2)cc1 (stereo unspecified)
111 to 113	CSC(=NCc1cccc2ccccc12)NCC1CCN(S(=O)(=O)c2cccc3ccccc23)CC1
284 to 286	CNc1nc(Nc2ccc(Cl)c(Cl)c2)ncc1NC(=O)C(C)C
265 to 267	Nc1ncnc2c1c(-c1ccc(NS(=O)(=O)c3ccccc3)c(O)c1)cn2C1CCCC1
210 to 212	COCC1(C)Oc2ccc(C#N)cc2C(n2ccccc2=O)C1O (stereo unspecified)
203 to 206	COc1cc(C(=O)CS(=O)(=O)c2ccccc2)ccc1Cc1cn(C)c2ccc(NC(=O)NC3CCCC3)cc12
116 to 119	COc1cccc(C)c1N(C(C)=O)C(C)=O
128 to 129	CC(=O)NCC1CN(c2ccc(N3CCN(C(=O)COC(=O)CN4CCN(C)CC4)CC3)c(F)c2)C(=O)O1 (stereo unspecified)
198 to 202	CC(C)(C)c1cc(C(=O)Nc2cccnc2NC(=O)NC23CC4CC(CC(C4)C2)C3)cc(C(C)(C)C)c1O
187 to 188	Cc1c(S(C)(=O)=O)c2ccccc2n1CC1=NCCN1

melting point [°C]	SMILES
193 to 194	CN(c1cccc2cc(C3=NCC(CN4CCS(=O)CC4)S3)[nH]c12)S(=O)(=O)c1ccccn1 (stereo unspecified)
69.5 to 71	COc1ccccc1N1CCN(CCNc2ccccc2OC(F)(F)F)CC1
206 to 212	COc1cc2c(cc1OC)[C@@H](c1ccc([N+](=O)[O-])cc1)NN(C1=NCCS1)[C@@H](C)C2
> 300	CCN1c2ncccc2C(=O)Nc2c(C)cc(NCCn3cc[nH]c3=O)nc21
272 to 274	CC(=O)N1CCN(c2c(C)c(C)c3c(c2C)C(c2ccc(C)cc2)C(C)(C)O3)CC1 (stereo unspecified)
120 to 121	CC(=O)N1CCN(C(C)c2ccc(-c3ccc(Cl)cc3)cc2)CC1 (stereo unspecified)
160	COc1c(C)cc(C(=O)c2cc(-c3ccc(Cl)cc3)c(N3CCOCC3)s2)nc1C
254 to 257	CN1CCCc2cc(C=C3SC(=O)NC3=O)ccc21
144 to 146	COc1ccc([C@@H]2CN(C)CC[C@@H]2NC(=S)c2ccc(C)cc2)cc1OC (relative stereo)
167 to 168	O=C(CN1CCNC1=O)N1CCC(C2c3ncc(Br)cc3CCc3cc(Cl)cc(Br)c32)CC1 (single isomer, unassigned; (+))
65	CC(C)(O)C(C(=O)O)c1ccc(Cl)cc1 (stereo unspecified)
181 to 185	COc1ccc2c(c1)c1c(n2C(=O)c2ccc(Cl)cc2)CCCC1C(=O)O (stereo unspecified)
138 to 139	CC(NCC#N)C(O)(Cn1cncn1)c1ccc(F)cc1F (stereo unspecified)
190 to 191	CCCc1c(/C=C/c2ccccc2C)nc2ccc(C(=O)O)cn2c1=O
138 to 139	Cc1c(Cc2ccc(C(C)C)cc2)c2c(c(C)c1NC(=O)CC(C)(C)C)C(N(C)C)C(C)(C)O2 (stereo unspecified)
71 to 72	CC(C)(C)OC(=O)C1CCN(Sc2ccncc2)CC1
